Laboratory results as given in patent publication US20220153744A1, “SOLID STATE FORMS OF ACALABRUTINIB” (ASSIA CHEMICAL INDUSTRIES LTD., priority 2019, published 2022).

Legend:
Type in all cases: physicochemical
[1] = Polymorphic stability towards grinding
Excerpt: (§1) Crystalline Form ACB3 of Acalabrutinib may have advantageous properties as described herein above.

[2] = Polymorphic stability on heating; details: heated to about 100° C. over about 30 minutes
Excerpt: as §1

[3] = Polymorphic stability on storage at defined temperature and relative humidity
Excerpt: as §1

CC#CC(=O)N1CCC[C@H]1c1nc(-c2ccc(C(=O)Nc3ccccn3)cc2)c2c(N)nccn12 [Form ACB3, 4-{8-Amino-3-[(2S)-1-(2-butynoyl)-2-pyrrolidinyl]imidazo[1,5-a]pyrazin-1-yl}-N-(2-pyridinyl)benzamide]
polymorphically stable: polymorphic stability towards solvent grinding ([1]; solvent grinding) | polymorphic stability towards strong dry grinding ([1]; strong dry grinding) | polymorphic stability when heated [2] | polymorphic stability on storage ([3]; 40° C., RH of about 75%, at least 1 month) | polymorphic stability on storage ([3]; room temperature, RH of about 60%, at least 1 month) | polymorphic stability on storage ([3]; room temperature, RH of about 80%, at least 7 days)
